ChEMBL document CHEMBL1129220, “Synthesis and structure-activity relationships of novel 3-Hty-substituted pneumocandins” (Bioorg Med Chem Lett, 1997)
Converted amounts (≈) assume the structure as drawn.

Legend:
Assay type in all cases: functional
Mus musculus [1] = assay: In vivo anti-Candida activity was obtained in the target organ kidney assay (TOKA), a mouse model of disseminated candidiasis; 20% of animals in test group with kidneys were completely sterilized of Candida albicans at the ED99.9 dose
Candida albicans = assay: In vitro minimum fungicidal concentration against Candida albicans (MY 1055) using a whole cell broth microdilution assay.
Mus musculus [2] = assay: In vivo anti-Candida activity was obtained in the target organ kidney assay (TOKA), a mouse model of disseminated candidiasis; 0% of animals in test group with kidneys were completely sterilized of Candida albicans at the ED99.9 dose
Mus musculus [3] = assay: In vivo anti-Candida activity was obtained in the target organ kidney assay (TOKA), a mouse model of disseminated candidiasis; 40% of animals in test group with kidneys were completely sterilized of Candida albicans at the ED99.9 dose

SMILES: CCC(C)CC(C)CCCCCCCCC(=O)N[C@@H]1C[C@@H](O)[C@@H](O)NC(=O)[C@@H]2[C@@H](O)CCN2C(=O)[C@H]([C@@H](O)CC(N)=O)NC(=O)[C@H]([C@@H](O)[C@H](O)c2ccc(O)cc2)NC(=O)[C@@H]2C[C@@H](O)CN2C(=O)[C@H]([C@@H](C)O)NC1=O (some centres undefined)
- ED99.9 (Mus musculus [1]): 6 mg/kg
- MFC (Candida albicans): 0.25 µg/mL (≈ 0.235 µM)

SMILES: CCC(C)CC(C)CCCCCCCCC(=O)N[C@@H]1C[C@@H](O)CNC(=O)[C@@H]2[C@@H](O)CCN2C(=O)[C@H]([C@@H](O)CC(N)=O)NC(=O)[C@H]([C@@H](O)Cc2ccc(O)c(C(=O)OC)c2)NC(=O)[C@@H]2C[C@@H](O)CN2C(=O)[C@H]([C@@H](C)O)NC1=O (some centres undefined)
- MFC (Candida albicans): 2 µg/mL (≈ 1.83 µM)

SMILES: CCC(C)CC(C)CCCCCCCCC(=O)N[C@@H]1C[C@@H](O)CNC(=O)[C@@H]2[C@@H](O)CCN2C(=O)[C@H]([C@@H](O)CC(N)=O)NC(=O)[C@H]([C@@H](O)Cc2ccc3c(c2)CC(O)O3)NC(=O)[C@@H]2C[C@@H](O)CN2C(=O)[C@H]([C@@H](C)O)NC1=O (some centres undefined)
- MFC (Candida albicans): 1 µg/mL (≈ 0.93 µM)

SMILES: CCC(C)CC(C)CCCCCCCCC(=O)N[C@@H]1C[C@@H](O)[C@@H](O)NC(=O)[C@@H]2[C@@H](O)CCN2C(=O)[C@H]([C@@H](O)CC(N)=O)NC(=O)[C@H]([C@@H](O)[C@H](O)c2ccc(O)c(N=[N+]=[N-])c2)NC(=O)[C@@H]2C[C@@H](O)CN2C(=O)[C@H]([C@@H](C)O)NC1=O (some centres undefined)
- MFC (Candida albicans): 0.5 µg/mL (≈ 0.452 µM)

SMILES: CCC(C)CC(C)CCCCCCCCC(=O)N[C@@H]1C[C@@H](O)[C@@H](O)NC(=O)[C@@H]2[C@@H](O)CCN2C(=O)[C@H]([C@@H](O)CC(N)=O)NC(=O)[C@H]([C@@H](O)[C@H](O)c2ccc(O)c(N)c2)NC(=O)[C@@H]2C[C@@H](O)CN2C(=O)[C@H]([C@@H](C)O)NC1=O (some centres undefined)
- MFC (Candida albicans): 2 µg/mL (≈ 1.85 µM)

SMILES: CCC(C)CC(C)CCCCCCCCC(=O)N[C@@H]1C[C@@H](O)CNC(=O)[C@@H]2[C@@H](O)CCN2C(=O)[C@H]([C@@H](O)CC(N)=O)NC(=O)[C@H]([C@@H](O)Cc2ccc(O)c([N+](=O)[O-])c2)NC(=O)[C@@H]2C[C@@H](O)CN2C(=O)[C@H]([C@@H](C)O)NC1=O (some centres undefined)
- MFC (Candida albicans): 2 µg/mL (≈ 1.85 µM)

SMILES: CCC(C)CC(C)CCCCCCCCC(=O)N[C@@H]1C[C@@H](O)[C@@H](O)NC(=O)[C@@H]2[C@@H](O)CCN2C(=O)[C@H]([C@@H](O)CC(N)=O)NC(=O)[C@H]([C@@H](O)[C@H](O)c2ccc(O)c(NC(=O)CCC(=O)O)c2)NC(=O)[C@@H]2C[C@@H](O)CN2C(=O)[C@H]([C@@H](C)O)NC1=O (some centres undefined)
- MFC (Candida albicans): 0.25 µg/mL (≈ 0.212 µM)
- ED99.9 (Mus musculus [2]): 6 mg/kg

SMILES: CCC(C)CC(C)CCCCCCCCC(=O)N[C@@H]1C[C@@H](O)CNC(=O)[C@@H]2[C@@H](O)CCN2C(=O)[C@H]([C@@H](O)CC(N)=O)NC(=O)[C@H]([C@@H](O)Cc2ccc(O)c(N=[N+]=[N-])c2)NC(=O)[C@@H]2C[C@@H](O)CN2C(=O)[C@H]([C@@H](C)O)NC1=O (some centres undefined)
- MFC (Candida albicans): 4 µg/mL (≈ 3.72 µM)

SMILES: C=Cc1cc(C[C@H](O)[C@@H]2NC(=O)[C@@H]3C[C@@H](O)CN3C(=O)[C@H]([C@@H](C)O)NC(=O)[C@H](NC(=O)CCCCCCCCC(C)CC(C)CC)C[C@@H](O)CNC(=O)[C@@H]3[C@@H](O)CCN3C(=O)[C@H]([C@@H](O)CC(N)=O)NC2=O)ccc1O (some centres undefined)
- MFC (Candida albicans): 1 µg/mL (≈ 0.944 µM)

SMILES: CCC(C)CC(C)CCCCCCCCC(=O)N[C@@H]1C[C@@H](O)CNC(=O)[C@@H]2[C@@H](O)CCN2C(=O)[C@H]([C@@H](O)CC(N)=O)NC(=O)[C@H]([C@@H](O)Cc2ccc(O)c(N)c2)NC(=O)[C@@H]2C[C@@H](O)CN2C(=O)[C@H]([C@@H](C)O)NC1=O (some centres undefined)
- MFC (Candida albicans): 2 µg/mL (≈ 1.91 µM)

SMILES: CCC(C)CC(C)CCCCCCCCC(=O)N[C@@H]1C[C@@H](O)CNC(=O)[C@@H]2[C@@H](O)CCN2C(=O)[C@H]([C@@H](O)CC(N)=O)NC(=O)[C@H]([C@@H](O)Cc2ccc(O)c(C=O)c2)NC(=O)[C@@H]2C[C@@H](O)CN2C(=O)[C@H]([C@@H](C)O)NC1=O (some centres undefined)
- MFC (Candida albicans): 1 µg/mL (≈ 0.942 µM)

SMILES: CCc1cc(C[C@H](O)[C@@H]2NC(=O)[C@@H]3C[C@@H](O)CN3C(=O)[C@H]([C@@H](C)O)NC(=O)[C@H](NC(=O)CCCCCCCCC(C)CC(C)CC)C[C@@H](O)CNC(=O)[C@@H]3[C@@H](O)CCN3C(=O)[C@H]([C@@H](O)CC(N)=O)NC2=O)ccc1O (some centres undefined)
- MFC (Candida albicans): 1 µg/mL (≈ 0.942 µM)

SMILES: CCC(C)CC(C)CCCCCCCCC(=O)N[C@@H]1C[C@@H](O)[C@@H](O)NC(=O)[C@@H]2[C@@H](O)CCN2C(=O)[C@H]([C@@H](O)CC(N)=O)NC(=O)[C@H]([C@@H](O)[C@H](O)c2ccc(O)c(NC(=O)CN)c2)NC(=O)[C@@H]2C[C@@H](O)CN2C(=O)[C@H]([C@@H](C)O)NC1=O (some centres undefined)
- MFC (Candida albicans): 0.25 µg/mL (≈ 0.22 µM)
- ED99.9 (Mus musculus [3]): 0.75 mg/kg

SMILES: CCC(C)CC(C)CCCCCCCCC(=O)N[C@@H]1C[C@@H](O)CNC(=O)[C@@H]2[C@@H](O)CCN2C(=O)[C@H]([C@@H](O)CC(N)=O)NC(=O)[C@H]([C@@H](O)Cc2ccc(O)c(CCO)c2)NC(=O)[C@@H]2C[C@@H](O)CN2C(=O)[C@H]([C@@H](C)O)NC1=O (some centres undefined)
- MFC (Candida albicans): 0.5 µg/mL (≈ 0.464 µM)

SMILES: CCC(C)CC(C)CCCCCCCCC(=O)N[C@@H]1C[C@@H](O)CNC(=O)[C@@H]2[C@@H](O)CCN2C(=O)[C@H]([C@@H](O)CC(N)=O)NC(=O)[C@H]([C@@H](O)Cc2ccc(O)c(I)c2)NC(=O)[C@@H]2C[C@@H](O)CN2C(=O)[C@H]([C@@H](C)O)NC1=O (some centres undefined)
- MFC (Candida albicans): 0.5 µg/mL (≈ 0.431 µM)

SMILES: CCC(C)CC(C)CCCCCCCCC(=O)N[C@@H]1C[C@@H](O)[C@@H](O)NC(=O)[C@@H]2[C@@H](O)CCN2C(=O)[C@H]([C@@H](O)CC(N)=O)NC(=O)[C@H]([C@@H](O)[C@H](O)c2ccc(O)c(NC(C)=O)c2)NC(=O)[C@@H]2C[C@@H](O)CN2C(=O)[C@H]([C@@H](C)O)NC1=O (some centres undefined)
- MFC (Candida albicans): 1 µg/mL (≈ 0.891 µM)

SMILES: CCC(C)CC(C)CCCCCCCCC(=O)N[C@@H]1C[C@@H](O)[C@@H](O)NC(=O)[C@@H]2[C@@H](O)CCN2C(=O)[C@H]([C@@H](O)CC(N)=O)NC(=O)[C@H]([C@@H](O)[C@H](O)c2cc(I)c(O)c(I)c2)NC(=O)[C@@H]2C[C@@H](O)CN2C(=O)[C@H]([C@@H](C)O)NC1=O (some centres undefined)
- MFC (Candida albicans): 8 µg/mL (≈ 6.07 µM)

SMILES: CCC(C)CC(C)CCCCCCCCC(=O)N[C@@H]1C[C@@H](O)CNC(=O)[C@@H]2[C@@H](O)CCN2C(=O)[C@H]([C@@H](O)CC(N)=O)NC(=O)[C@H]([C@@H](O)Cc2ccc(O)c(O)c2)NC(=O)[C@@H]2C[C@@H](O)CN2C(=O)[C@H]([C@@H](C)O)NC1=O (some centres undefined)
- MFC (Candida albicans): 0.5 µg/mL (≈ 0.477 µM)

SMILES: CCC(C)CC(C)CCCCCCCCC(=O)N[C@@H]1C[C@@H](O)[C@@H](O)NC(=O)[C@@H]2[C@@H](O)CCN2C(=O)[C@H]([C@@H](O)CC(N)=O)NC(=O)[C@H]([C@@H](O)[C@H](O)c2ccc(O)c(NC(=O)CCN)c2)NC(=O)[C@@H]2C[C@@H](O)CN2C(=O)[C@H]([C@@H](C)O)NC1=O (some centres undefined)
- MFC (Candida albicans): 0.25 µg/mL (≈ 0.217 µM)
- ED99.9 (Mus musculus [2]): 0.78 mg/kg

SMILES: C=CCc1cc(C[C@H](O)[C@@H]2NC(=O)[C@@H]3C[C@@H](O)CN3C(=O)[C@H]([C@@H](C)O)NC(=O)[C@H](NC(=O)CCCCCCCCC(C)CC(C)CC)C[C@@H](O)CNC(=O)[C@@H]3[C@@H](O)CCN3C(=O)[C@H]([C@@H](O)CC(N)=O)NC2=O)ccc1O (some centres undefined)
- MFC (Candida albicans): 1 µg/mL (≈ 0.932 µM)

SMILES: CCC(C)CC(C)CCCCCCCCC(=O)N[C@@H]1C[C@@H](O)[C@@H](O)NC(=O)[C@@H]2[C@@H](O)CCN2C(=O)[C@H]([C@@H](O)CC(N)=O)NC(=O)[C@H]([C@@H](O)[C@H](O)c2ccc(O)c(I)c2)NC(=O)[C@@H]2C[C@@H](O)CN2C(=O)[C@H]([C@@H](C)O)NC1=O (some centres undefined)
- MFC (Candida albicans): 4 µg/mL (≈ 3.36 µM)

SMILES: CCCc1cc(C[C@H](O)[C@@H]2NC(=O)[C@@H]3C[C@@H](O)CN3C(=O)[C@H]([C@@H](C)O)NC(=O)[C@H](NC(=O)CCCCCCCCC(C)CC(C)CC)C[C@@H](O)CNC(=O)[C@@H]3[C@@H](O)CCN3C(=O)[C@H]([C@@H](O)CC(N)=O)NC2=O)ccc1O (some centres undefined)
- MFC (Candida albicans): 0.5 µg/mL (≈ 0.465 µM)

SMILES: CCC(C)CC(C)CCCCCCCCC(=O)N[C@@H]1C[C@@H](O)[C@@H](O)NC(=O)[C@@H]2[C@@H](O)CCN2C(=O)[C@H]([C@@H](O)CC(N)=O)NC(=O)[C@H]([C@@H](O)[C@H](O)c2ccc(O)c(NC(=O)CS)c2)NC(=O)[C@@H]2C[C@@H](O)CN2C(=O)[C@H]([C@@H](C)O)NC1=O (some centres undefined)
- MFC (Candida albicans): 2 µg/mL (≈ 1.73 µM)

SMILES: CCC(C)CC(C)CCCCCCCCC(=O)N[C@@H]1C[C@@H](O)[C@@H](O)NC(=O)[C@@H]2[C@@H](O)CCN2C(=O)[C@H]([C@@H](O)CC(N)=O)NC(=O)[C@H]([C@@H](O)[C@H](O)c2ccc(O)c([N+](=O)[O-])c2)NC(=O)[C@@H]2C[C@@H](O)CN2C(=O)[C@H]([C@@H](C)O)NC1=O (some centres undefined)
- MFC (Candida albicans): 8 µg/mL (≈ 7.21 µM)

SMILES: CCC(C)CC(C)CCCCCCCCC(=O)N[C@@H]1C[C@@H](O)CNC(=O)[C@@H]2[C@@H](O)CCN2C(=O)[C@H]([C@@H](O)CC(N)=O)NC(=O)[C@H]([C@@H](O)Cc2ccc(O)cc2)NC(=O)[C@@H]2C[C@@H](O)CN2C(=O)[C@H]([C@@H](C)O)NC1=O (some centres undefined)
- MFC (Candida albicans): 0.25 µg/mL (≈ 0.242 µM)
